# Experimental data published in patent US20250064859A1, “HPSC-DERIVED ARTICULAR CHONDROCYTE COMPOSITIONS, SYSTEMS AND METHODS OF USE THEREOF” (The Children's Medical Center Corporation, priority 2022, published 2025).
# Assays:
# Assay type in all cases: cell-based, human
# [1] = tested on: paraxial mesoderm; assay: Chondrogenic potential of day 14 paraxial mesoderm induced with (420i) or without (420) the Wnt inhibitor in stage 2; conditions: 420 mesoderm treated with the Wnt inhibitor from day 3-5 of differentiation/stage 2
# Procedure: Five experiments were conducted, and qPCR tests were performed on the cells after 4 weeks and the data was pooled and analyzed. In a second test, 420 and 420i paraxial mesoderm cells were plated in micromass cultures supplemented with TGFβ and qPCR was performed after 12 weeks of micromass expansion. In a third test, 420 and 420i paraxial mesoderm cells were plated in serum-free monolayer culture with no additional factors and qPCR was performed following 4 weeks of culture. A second group of 420 and 420i paraxial mesoderm cells were plated in serum-free monolayer culture supplemented with either FGF alone or with a mixture of FGF, TGFβ and Forskolin (FSK). qPCR was performed after 4 weeks in culture.
# [2] = tested on: monolayer-derived chondrocytes; assay: Micromasses seeded with monolayer-derived chondrocytes and treated with TGFβ or BMP; phenotype and qPCR; conditions: for cartilage phenotype induced in micromass culture: monolayer-derived chondrocytes plated in micromass
# Source text: FIGS. 9A-9C are bar graphs showing relative mRNA copy number for COL10A1 (growth plate cartilage marker) (FIG. 9A), PRG4 (articular cartilage marker) (FIG. 9B) and COL2A1 (general cartilage marker) (FIG. 9C) of monolayer-derived chondrocytes (derived with either FGF-alone or the combination of TGFβ+FGF+FSK treatment) that were subsequently cultured in micromass for 6 weeks in the presence of TGFβ or BMP4 to generate articular or growth plate-like chondrocytes and cartilage tissues. FIGS. 9D-9F are bar graphs showing mRNA copy number for COL10A1 (FIG. 9D), PRG4 (FIG. 9E) and COL2A1 (FIG. 9F) of monolayer-derived chondrocytes (derived with either FGF-alone or the combination of TGFβ+FGF+FSK treatment) that were subsequently cultured in micromass (uM) for 12 weeks in the presence of TGFβ or BMP4 to generate articular or growth plate-like chondrocytes and cartilage tissues.
# Micromasses were seeded with monolayer-derived chondrocytes and were treated with TGFβ to induce articular cartilage (i.e., to reproduce “superficial zone-like” chondrocytes that express PRG4) or with BMP to induce growth plate cartilage (GPC; i.e., to produce hypertrophic chondrocytes that express COL10A1). Monolayer-derived chondrocytes were generated with the following compositions: FGF alone or TGF+FGF+FSK30.
# [3] = tested on: micromass cultures (hPSC-derived articular cartilage tissues); assay: BMP4 challenge of TGFβ3-treated micromass cultures; COL10A1 mRNA normalized to TBP
# Source text: FIGS. 17A-17C depict copy number COL10A1 mRNA normalized to TBP in micromass cultures at indicated timepoints and treatment regimens. FIG. 17A depicts copy number COL10A1 mRNA in micromass cultures treated with TGFB3 from 2-24 weeks, and in TGFB3-treated micromass cultures that were switched to BMP4-supplemented media after 2 weeks (BMP4 @2w), 2 weeks, and 4, 6, 8, 10, 12 weeks in which gene expression was quantified after 2, 6, 12, or 24 weeks after switching media to BMP4-supplementation. FIG. 17B and FIG. 17C depict copy number PRG4 (FIG. 17B) and COL10A1 (FIG. 17C) in micromass cultures after 2, 6, 12, and 24 weeks (w).
# FIGS. 17A-C depict copy number COL10A1 mRNA normalized to TBP in micromass cultures at indicated timepoints and treatment regimens. […] Data represents average of 4 biological replicates, error bars indicate standard error.
Molecule,chondrogenic potential of paraxial mesoderm [1],"COL10A1 (hypertrophic chondrocyte/GPC gene) expression ([2]; micromass, regardless of monolayer treatment prior to micromass culture)",cartilage phenotype induced in micromass culture [2],COL10A1 mRNA response to BMP4 challenge ([3]; micromass treated with TGFβ for 8 weeks or less prior to BMP4),COL10A1 mRNA response to BMP4 challenge ([3]; micromass treated with TGFβ for at least 10 weeks prior to BMP4),PRG4 (articular cartilage gene) expression ([2]; micromass)
"Cc1ccc2nc(NC(=O)CSc3nc4c(c(=O)n3-c3ccccc3)SCC4)sc2c1 [IWP2, N-(6-Methyl-2-benzothiazolyl)-2-[(3,4,6,7-tetrahydro-4-oxo-3-phenylthieno[3,2-d]pyrimidin-2-yl)thio]-acetamide]",increased chondrogenic potential,–,–,–,–,–
"BMP4: Bone Morphogenetic Protein 4, used to induce growth plate cartilage",–,higher,induces growth plate cartilage phenotype,upregulate COL10A1 mRNA,do not upregulate COL10A1 mRNA,–
"TGFB: transforming growth factor β3, TGFβ agonist used to induce articular cartilage",–,–,induces articular-like cartilage phenotype,–,–,higher
